Experimental data taken from patent publication US20080200405A1, “Drug Resistance Reversal In Neoplastic Disease” (priority 2007, published 2008).
Counter-ions that a name gives are not always drawn. Like-named read-outs stand apart in the source and are kept apart here.

What was measured:
[1] = test system: Doxorubicin resistant SaOS2 cells; test: Cancer cell viability (MTT) in the presence or absence of doxorubicin; assay type: cell-based, human; settings: compound 50 ug/mL, 3 days
[2] = test system: TNFα; test: Measurement of LPS Induced-TNFα in THP-1 Cells; assay type: cell-based, human; settings: Homo sapiens
Protocol: The lipid peroxidation assay method of Ohkawa, H.; Ohishi, N.; Yaki, K. Anal. Biochem. 1979, 95, 351 was used to evaluate […]. […] […] Cells were collected and spun at 1500 g for 10 minutes. Supernatant was collected and analyzed for TNFα.
Mean Percent Inhibition of TNF-alpha by compounds of the present invention is set forth in Table B. TNF-alpha inhibition data is set forth in Table B-1. OT-551 was used in both native form and in the form of nanoparticles. […] Other nitrogenous heterocyclic species of the invention are expected to show similar improvement in efficacy when disposed in nanoparticulate form.

[3] = test system: Lipid peroxidation; test: Lipid peroxidation inhibition (method of Ohkawa); assay type: biochemical
[4] = test system: bFGF-induced angiogenesis in the CAM model; test: bFGF (FGF2)-stimulated CAM model; assay type: in vivo, chicken; settings: bFGF/FGF2 1 ug, 30 ug injected; for inhibition in vivo at 0.03 mg: Gallus gallus, read-out: % Inhibition ± SEM
Protocol: In vivo neovascularization was examined by the method previously described by Auerbach et al. (J. Dev. Biol. 41:391-394 (1974)). Ten-day old chicken embryos were purchased from Spafas, Inc. (Preston, Conn.) and were incubated at 37° C. with 55% relative humidity. In the dark, with the aid of a candling lamp, a small hole was punctured in the shell concealing the air sac with a hypodermic needle. A second hole was punctured in the shell on the broadside of the egg directly over an […] portion of the embryonic membrane, as observed during candling. An artificial air sac was created beneath the second hole by applying gentle vacuum to the first hole using a small rubber squeeze bulb. The vacuum caused the chorioallantoic membrane (CAM) to separate from the shell.
For inducing angiogenesis, sterile filter disks were saturated with bFGF (1 μg/ml) (Life Technologies, Gaithersburg, Md.) or other pro-angiogenesis factors and control disks were saturated with PBS without Calcium and Magnesium. Control disks were saturated with PBS without Calcium and Magnesium.
After 24-48 hr, 10-25 ul of test agent was injected intravenously or added topically into the CAM membrane. Eight-Ten eggs/treatment group were used.
The number of vessel branch points contained in a circular region equal to the area of a filter disk was counted for each section. Percent inhibition data are expressed as the quotient of the experimental value minus the negative control value divided by the difference between the positive control value and the negative control value. One image was counted in each CAM preparation, and findings from eight CAM preparations were analyzed for each treatment condition. In addition, each experiment was performed three times. The resulting angiogenesis index is the mean ±SEM (Standard Error of Measurement) of new branch points in each set of treatment. Statistical analysis of blood vessel branching patterns are performed by 1-way analysis of variance (ANOVA) comparing experimental with corresponding control groups. Statistical significance differences are assessed at P value of <0.05.
The CAM model protocol was modified to include stimulus with bFGF. The effect of injected OT 551 was assayed.
TP-H was applied to the CAM model study to determine its respective anti-angiogenesis effects according to the materials and methods provided in Example 1. Basic Fibroblast Growth Factor (bFGF) was used to induce angiogenesis in the CAM model.
Compounds were introduced via injection to the CAM model study to determine its respective anti-angiogenesis effects according to the materials and methods provided in Example 1. bFGF was used to induce angiogenesis in the CAM model.

[5] = THP-1, compound 10 uM, 5 ng/mL LPS, read-out: Mean Percent Inhibition of TNF-alpha using 5 ng/mL LPS

Row | SMILES | IC50 ([2]; THP-1, read-out: TNFalpha IC50) | melting point | Mean OD (×10^−3), MTT viability ([1]; Dox. 10^−6 M (+)) | Mean OD (×10^−3), MTT viability ([1]; absence of Dox. (−)) | % Lipid Peroxidation inhibition (at 1 uM) [3] | inhibition in vivo at 0.03 mg [4] | Branch pts ± SEM [4] | Lipid Peroxidation Inhibition, % Inhibition ([3]; 10 uM) | inhibition at 10 µM [2, 5] | Lipid Peroxidation Inhibition, % Inhibition ([3]; 100 uM) | inhibition at 10 µM ([2]; THP-1, read-out: Mean Percent Inhibition of TNF-alpha using 5 ng/mL LPS) | IC50 ([2]; THP-1, read-out: TNFalpha IC50 (uM))
1 | CCOCC(C)(C)N(O)C(C)(C)COCC [Compound 40, N-Hydroxyl-N,N-bis(1-ethoxy-2-methylpropan-2-yl)amine hydrochloride] | ≥ 100 µM | – | 338.75 ×10^−3 | 1177.25 ×10^−3 | 46.8% | – | – | – | – | – | – | –
2 | CC1(C)C=C(CO)CC(C)(C)N1O.Cl [Compound 25] | – | – | 325.00 ×10^−3 | 1137.50 ×10^−3 | 42.0% | – | – | – | – | – | – | –
3 | CC1(C)CC(OCc2ccccc2)CC(C)(C)N1O.Cl [Compound 43, 4-Benzyloxy-1-hydroxy-2,2,6,6-tetramethylpiperidine hydrochloride] | ≥ 100 µM | 181.5 °C (dec.) | 324.67 ×10^−3 | 1159.00 ×10^−3 | 88.5% | – | – | – | – | – | – | –
4 | O=C(O)c1cc(C(=O)O)c2c(n1)C(=O)C(=O)c1cc(C(=O)O)[nH]c1-2 [PQQ, pyrroloquinoline quinone, reference compound] | – | – | – | – | – | – | – | – | – | 93.7% | – | –
5 | CC(C)(C)/[N+]([O-])=C/c1ccccc1 [Compound 17, α-phenyl-t-butyl nitrone, reference compound] | – | – | – | – | – | – | – | 0.4% | – | – | – | –
6 | CC1(C)C=C(CO)C(C)(C)N1O [Compound 8, 2,5-dihydro-2,2,5,5-tetramethyl-1-hydroxyl-1H-pyrrol-3-yl)methanol hydrogen chloride] | 20.3 µM | – | 197.25 ×10^−3 | 392.50 ×10^−3 | – | 88.1 ± 7.6% | 57.8 ± 8.02 | – | 55 ± 6% | – | – | –
7 | CC(C)(C)c1cc(NC(=O)C2CC(C)(C)N(O)C(C)(C)C2)cc(C(C)(C)C)c1O.Cl [Compound 29, N-(3,5-di-tert-butyl-4-hydroxyphenyl)-1-hydroxy-2,2,6,6-tetramethylpiperidine-4-carboxamide hydrogen chloride] | 45.5 µM | – | 105.75 ×10^−3 | 1328.00 ×10^−3 | 92.3% | – | – | – | – | – | – | –
8 | COc1ccc(C2=C(c3cc(OC)c(OC)c(OC)c3)C(C)(C)N(O)C2(C)C)cc1C=O.Cl [Compound 46, 5-(2,5,-dihydro-4-(3,4,5-trimethoxyphenyl)-1-hydroxy-2,2,5,5-tetramethyl-1H-pyrrol-3-yl)-2-methoxybenzaldehyde hydrochloride] | 1 µM | – | 32.75 ×10^−3 | 79.00 ×10^−3 | 80.1% | – | – | – | – | – | – | –
9 | CC1(C)CC(CO)C(C)(C)N1O.Cl (stereo not drawn) [Compound 33] | – | – | 300.00 ×10^−3 | 1237.50 ×10^−3 | 54.9% | – | – | – | – | – | – | –
10 | CC1(C)CC(O)(c2ccccc2)CC(C)(C)N1O.Cl [Compound 42, 1,4-Dihydroxy-4-phenyl-2,2,6,6-tetramethylpiperidine hydrochloride] | 1 µM | 201.7 °C (dec.) | 311.00 ×10^−3 | 1068.67 ×10^−3 | 83.8% | – | – | – | – | – | – | –
11 | CCCCC1(O)CC(C)(C)N(O)C(C)(C)C1.Cl [Compound 41, 1,4-dihydroxy-4-n-butyl-2,2,6,6-tetramethylpiperidine hydrochloride] | 0.9 µM | 187 °C (dec.) | 261.25 ×10^−3 | 824.75 ×10^−3 | – | – | – | – | – | – | – | –
12 | CC1(C)CC(Oc2nsnc2C#N)CC(C)(C)N1O [Compound 45, hydrochloride] | 30 µM | – | 276.50 ×10^−3 | 1063.33 ×10^−3 | 91.5% | – | – | – | – | – | – | –
13 | CC1(C)CC(=O)CC(C)(C)N1O [Compound 5, 1-Hydroxy-2,2,6,6-tetramethyl-piperidin-4-one] | – | – | 245.50 ×10^−3 | 556.50 ×10^−3 | 71.0% | 26.5 ± 7.9% | 86.1 ± 9.8 | 86.3% | – | – | 66 ± 7% | 22.2 µM

Further lines, with some results ahead:

Row | IC50 ([2]; THP-1, read-out: TNFalpha IC50) | melting point | SMILES | Mean OD (×10^−3), MTT viability ([1]; Dox. 10^−6 M (+)) | Mean OD (×10^−3), MTT viability ([1]; absence of Dox. (−)) | % Lipid Peroxidation inhibition (at 1 uM) [3] | inhibition in vivo at 0.03 mg [4] | Branch pts ± SEM [4] | Lipid Peroxidation Inhibition, % Inhibition ([3]; 10 uM) | inhibition at 10 µM [2, 5] | Lipid Peroxidation Inhibition, % Inhibition ([3]; 100 uM) | inhibition at 10 µM ([2]; THP-1, read-out: Mean Percent Inhibition of TNF-alpha using 5 ng/mL LPS) | IC50 ([2]; THP-1, read-out: TNFalpha IC50 (uM))
14 | ≥ 100 µM | – | CC1(C)CC(C(N)=O)C(C)(C)N1O (stereo not drawn) [Compound 24, 1-hydroxy-2,2,5,5-tetramethylpyrrolidine-3-carboxamide] | 362.00 ×10^−3 | 1166.50 ×10^−3 | 37.0% | – | – | – | – | – | – | –
15 | ≥ 100 µM | – | CC1(C)CC(NS(C)(=O)=O)CC(C)(C)N1O [Compound 10, 1-hydroxy-4-methanesulfonamido-2,2,6,6-tetramethylpiperidine] | 250.00 ×10^−3 | 456.00 ×10^−3 | – | 78.2 ± 9.9% | 60.4 ± 5.0 | 85.8% | – | – | – | –
16 | 11.6 µM | – | CC1(C)CC(N2CCOCC2)CC(C)(C)N1O.Cl [Compound 3, 4-(2,2,6,6-tetramethylpiperidin-1-hydroxy-4-yl)morpholine hydrogen chloride] | 289.50 ×10^−3 | 640.25 ×10^−3 | – | 54.7 ± 7.9% | 95.1 ± 5.6 | 77.8% | 60 ± 2% | – | – | –
17 | 3.8 µM | – | CC1(C)C=CCC(C)(C)N1O.Cl [Compound 35, 1-hydroxy-1,2,3,6-tetrahydro-2,2,6,6-tetramethylpyridine hydrogen chloride] | 352.75 ×10^−3 | 1128.00 ×10^−3 | 64.4% | – | – | – | – | – | – | –
18 | 16.8 µM | – | COC1CC(C)(C)N(O)C(C)(C)C1.Cl [Compound 1, 1-hydroxy-4-methoxy-2,2,6,6-tetramethylpiperidine hydrogen chloride] | 246.50 ×10^−3 | 524.75 ×10^−3 | 74.1% | 89.9 ± 18% | 74 ± 8.6 | 90.8% | 50 ± 9% | – | – | –
19 | 18.9 µM | 138.5 °C (dec.) | CC1(C)CC(O)C(Br)C(C)(C)N1O (stereo not drawn) [Compound 9, 3-Bromo-2,2,6,6-tetramethyl-piperidine-1,4-diol] | 234.75 ×10^−3 | 509.00 ×10^−3 | – | 82.2 ± 6.7% | 58.4 ± 6.52 | – | 48 ± 14% | – | – | –
20 | ≥ 100 µM | – | Cc1cc(O)c(O)cc1C(=O)NC1CC(C)(C)N(O)C(C)(C)C1.Cl [Compound 27, 4,5-dihydroxy-2-methyl-N-(1-hydroxy-2,2,6,6-tetramethylpiperidin-4-yl)benzamide hydrogen chloride] | 403.75 ×10^−3 | 1038.33 ×10^−3 | 53.4% | – | – | – | – | – | – | –
21 | 44.9 µM | – | CC1(C)CC(O)C(C)(C)N1O (stereo not drawn) [Compound 7, 2,2,5,5-Tetramethyl-pyrrolidine-1,3-diol] | 241.25 ×10^−3 | 540.25 ×10^−3 | – | 124 ± 8.4% | 40.8 ± 9.7 | 82.9% | 69 ± 2% | – | – | –
